Reference: PMC4594035, “Xenopus borealis as an alternative source of oocytes for biophysical and pharmacological studies of neuronal ion channels” (Scientific Reports, 2015)
Like-named read-outs stand apart in the source and are kept apart here. Bridge positions count the residues as written; N and C are the ends. Ends that are not written are not given here.

Legend:
rat ASIC3 = target: T1, rat ASIC3 (Rattus norvegicus, UniProt O35240); experiment: Inhibition of rat ASIC3 by APETx2, two-electrode voltage-clamp in Xenopus oocytes; type: cell-based; conditions: ND96 with 0.1% fatty acid free-bovine serum albumin, 18–21 °C, mean, n = 9, Supplementary Table S3, read-out: IC50 (half-maximal response)
T1 construct: expressed in transfected cells; host or cells: Xenopus laevis and Xenopus borealis oocytes (cRNA injection)
T1 sequence (O35240 1-533): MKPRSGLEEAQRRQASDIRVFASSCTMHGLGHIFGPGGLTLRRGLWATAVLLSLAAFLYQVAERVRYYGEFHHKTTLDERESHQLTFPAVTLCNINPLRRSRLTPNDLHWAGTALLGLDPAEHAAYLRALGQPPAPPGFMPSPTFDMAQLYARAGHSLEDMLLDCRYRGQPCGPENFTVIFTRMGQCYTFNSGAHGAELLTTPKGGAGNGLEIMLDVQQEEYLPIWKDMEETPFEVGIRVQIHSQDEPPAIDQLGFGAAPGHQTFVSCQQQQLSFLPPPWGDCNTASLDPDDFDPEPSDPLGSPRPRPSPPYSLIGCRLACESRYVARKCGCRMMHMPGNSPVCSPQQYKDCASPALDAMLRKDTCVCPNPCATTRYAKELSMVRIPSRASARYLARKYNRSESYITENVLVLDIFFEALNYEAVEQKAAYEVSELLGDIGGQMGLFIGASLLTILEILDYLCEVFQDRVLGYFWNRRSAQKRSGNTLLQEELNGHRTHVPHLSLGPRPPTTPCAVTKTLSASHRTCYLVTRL
Procedure: X. laevis (Xenopus Express) and X. borealis (Nasco) oocytes were surgically removed from anaesthetised (Tricaine methanesulfonate, MS-222) female frogs and treated with collagenase (1 mg/ml; Sigma type I) for defolliculation. cRNAs were synthesised using an mMessage mMachine cRNA transcription kit (Ambion Inc., Austin, TX, USA) and injected into stage V–VI oocytes at 4–200 ng per cell. Oocytes were stored at 17 °C in ND96 solution (96 mM NaCl, 1.8 mM CaCl2, 2 mM KCl, 2 mM MgCl2, 5 mM HEPES, pH 7.4) supplemented with 2.5 mM pyruvic acid, 50 μg/mL gentamicin, and either 2.5% horse serum or 0.5 mM theophylline. Membrane currents were recorded 2–10 days after injection under voltage-clamp (Axoclamp 900A or Geneclamp 500B, Molecular Devices, CA, USA) using two standard glass microelectrodes of 0.5–2 MΩ resistance when filled with 3 M KCl solution. Data acquisition and analysis were performed using pCLAMP software (Version 9.2 or 10, Molecular Devices, Sunnyvale, CA, USA). All experiments were performed at room temperature (18–21 °C) in ND96 solution. Experiments containing peptides were performed in ND96 solution containing 0.1% fatty acid free-bovine serum albumin (Sigma). […]
All data were analysed using Prism 6.0 (GraphPad Software, San Diego, CA, USA). […] For both t-tests, it was assumed data was sampled from Gaussian populations, and P values were calculated from two-tailed tests. […]

α1N203C GlyR = conditions: for ΔFmax (maximal fluorescence change) / ΔImax (maximal current change) / Slope, ΔF / Slope, ΔI / EC50: MTS-TAMRA labelled, mean ± s.e.m.; for Slope, ΔF / Slope, ΔI / EC50: n = 4–6; for EC50: −40 mV
Text: (§1) This technique permits the real time monitoring of conformational changes in ion channel domains distant from the gate. It involves introducing a cysteine into the ion channel domain of interest and covalently labelling it with a sulfhydryl-reactive rhodamine derivative such as MTSR. As the quantum efficiency of the rhodamine depends on the hydrophobicity of its environment, protein conformational changes occurring in the immediate vicinity of the attached fluorophore are likely to change the hydrophobicity of its environment and thus produce a fluorescence change. […] Conformational changes at the channel gate are monitored simultaneously using two-electrode voltage-clamp. For these recordings, DNA encoding the α1 GlyR subunit was subcloned into pGEMHE, a plasmid vector optimised for oocyte expression. […] Both sites have previously been characterised extensively using voltage-clamp fluorometry. A C41A mutation was incorporated into the α1 GlyR to eliminate the sole non-crosslinked extracellular sulfhydryl group. Site directed mutagenesis was performed using the QuikChange mutagenesis kit (Stratagene).
(§2) On the day of recording, oocytes were transferred into ND96 and stored on ice. For a subset of experiments, a modified version of the previously described approach[39] for vitelline membrane disruption and removal was performed by incubating oocytes in ND96 containing 0.5 mg/ml protease (protease type VIII from Bacillus licheniformis, Sigma-Aldrich) for 1–1.5 min before labelling. Following this, a sequential wash step was performed by transferring oocytes into fresh ND96 solution five consecutive times. To label with either MTSR or MTS-TAMRA (Toronto Research Chemicals), oocytes were transferred into labelling solution containing 10 μM of either compound in ND96 for 25 s. The oocytes were then washed and stored in ND96 for up to 6 h before recording. All labelling steps were performed on ice.
(§3) We recently described the experimental set up in detail. Briefly, we employed an inverted microscope (Eclipse TE300, Nikon Instruments) equipped with a high-Q tetramethylrhodamine isothiocyanate filter set (Chroma Technology), a Plan Fluor X40 objective (Nikon Instruments) and an H7360-03 photomultiplier detection system (Hamamatsu Photonics) attached to the side port of the microscope. An excitation filter wheel including a shutter and emission filter wheel were controlled through a Lambda 10-2 unit (Sutter Instruments). A Lambda LS 175 W xenon arc lamp served as a light source and was coupled to the microscope via a liquid light guide (Sutter Instruments). The design of the custom-made recording chamber has been described. An automated perfusion system operated by a ValveBank-8 valve controller (AutoMate Scientific) was used for perfusion of the recording chamber. Electrodes were moved by automated ROE-200 micromanipulators coupled to an MPC-200 controller (Sutter Instruments). Cells were voltage-clamped at −40 mV and currents recorded using a Gene Clamp 500B amplifier (Molecular Devices). Current and fluorescence traces were acquired at 200 Hz via a Digidata 1322A interface and pCLAMP 9.2 software.
(§4) All data were analysed using Prism 6.0 (GraphPad Software, San Diego, CA, USA). The Hill equation was fitted to normalised concentration-response curves to obtain the half-maximal response (EC50, IC50, or pH50) and Hill coefficient (nH). Voltage-dependent activation curves were fit with the Boltzmann equation to obtain the V0.5 (the voltage corresponding to half-maximal effect). Data are shown as mean and 95% confidence intervals, and n represents the number of oocytes for a given experiment (taken from at least three different frogs). Most equivalence testing comparing X. laevis and X. borealis oocytes was performed using an unpaired Student’s t-test with 95% confidence intervals.

α1R271C GlyR = conditions: MTSR labelled, mean ± s.e.m.; for Slope, ΔF / Slope, ΔI / EC50: n = 4–6; for EC50: −40 mV
Text: as §1, §2, §3, §4

[1] = read-out: EC50, ΔF (glycine-induced fluorescence change), X. laevis oocytes
[2] = read-out: EC50, ΔI (glycine-induced current), X. borealis oocytes
[3] = read-out: EC50, ΔI (glycine-induced current), X. laevis oocytes

GTACSCGNSKGIYWFYRPSCPTDRGYTGSCRYFLGTCCTPAD (disulfide 4-37, 6-30, 20-38) [APETx2]
IC50 (rat ASIC3; X. borealis oocytes): 0.0511 µM | IC50 (rat ASIC3; X. laevis oocytes): 0.0647 µM

NCC(=O)O [glycine]
ΔF after 1 min protease treatment vs untreated oocytes (α1N203C GlyR; 10 μM glycine, protease (type VIII, 0.5 mg/ml) 1 min before labelling, n = 7, Fig. 5b): A significant increase in ΔF was obtained after 1 min treatment with protease for X. borealis, but not X. laevis, oocytes | ΔFmax (maximal fluorescence change) (α1N203C GlyR; X. borealis oocytes): 27.8 ± 4.4% | ΔImax (maximal current change) (α1N203C GlyR; X. borealis oocytes): 8.0 ± 0.8 µA | Slope, ΔF (α1N203C GlyR; X. borealis oocytes): 1.8 ± 0.1 | Slope, ΔI (α1N203C GlyR; X. borealis oocytes): 1.5 ± 0.1 | ΔFmax (maximal fluorescence change) (α1N203C GlyR; X. laevis oocytes): 25.9 ± 4.2% | ΔImax (maximal current change) (α1N203C GlyR; X. laevis oocytes): 8.4 ± 0.2 µA | Slope, ΔF (α1N203C GlyR; X. laevis oocytes): 1.4 ± 0.2 | Slope, ΔI (α1N203C GlyR; X. laevis oocytes): 1.9 ± 0.2 | EC50 (α1N203C GlyR; [1]): 548 ± 25 µM | EC50 (α1N203C GlyR; [2]): 136 ± 8.7 µM | EC50 (α1N203C GlyR; [3]): 145 ± 10 µM | ΔFmax (maximal fluorescence change) (α1R271C GlyR; X. borealis oocytes): 9.0 ± 2.2% | ΔImax (maximal current change) (α1R271C GlyR; X. borealis oocytes): 2.7 ± 0.5 µA | Slope, ΔF (α1R271C GlyR; X. borealis oocytes): 1.0 ± 0.1 | Slope, ΔI (α1R271C GlyR; X. borealis oocytes): 2.0 ± 0.2 | ΔFmax (maximal fluorescence change) (α1R271C GlyR; X. laevis oocytes): 12.2 ± 2.2% | ΔImax (maximal current change) (α1R271C GlyR; X. laevis oocytes): 3.4 ± 1.7 µA | Slope, ΔF (α1R271C GlyR; X. laevis oocytes): 1.3 ± 0.2 | Slope, ΔI (α1R271C GlyR; X. laevis oocytes): 1.4 ± 0.2 | EC50 (α1R271C GlyR; read-out: EC50, ΔF (glycine-induced fluorescence change), X. borealis oocytes): 1010 ± 98 µM | EC50 (α1R271C GlyR; [1]): 872 ± 58 µM | EC50 (α1R271C GlyR; [2]): 1700 ± 104 µM | EC50 (α1R271C GlyR; [3]): 1930 ± 175 µM
